Reference: the NIST ThermoML archive (doi:10.1016/j.tca.2005.11.024)

Columns and labels:
[1] = molar heat capacity at constant pressure; conditions: 101.33 kPa, Small sample (50 mg) DSC
[2] = Molar enthalpy of transition or fusion; conditions: DSC
[3] = DTA

O=C(O)Cc1cccs1 [2-thiopheneacetic acid]
[1], Crystal
Conditions	molar heat capacity at constant pressure [J/K/mol]
268.15 K	146.3
270.15 K	147.2
275.15 K	149.6
280.15 K	150.9
285.15 K	153.4
290.15 K	155.2
295.15 K	157.6
298.15 K	159.2
300.15 K	160.3
305.15 K	163.9
310.15 K	166.1
315.15 K	168.5
320.15 K	170.5
325.15 K	173.6

Crystal
Conditions	Molar enthalpy of transition or fusion [kcal/mol]	Normal melting temperature [°C]
[2]	3.35	–
[3]	–	64.2

CC(=O)c1cccs1 [2-acetylthiophene]
Conditions	molar heat capacity at constant pressure [J/K/mol]
[1], 298.15 K, Liquid	205.7

O=S1(=O)CCOCC1 [1,4-oxathiane 4,4-dioxide]
[1], Crystal 2
Conditions	molar heat capacity at constant pressure [J/K/mol]
268.15 K	134.2
270.15 K	135.4
275.15 K	137.3
280.15 K	139.3
285.15 K	141.7
290.15 K	144.2
295.15 K	146.6
298.15 K	147.9
300.15 K	148.9
305.15 K	151.2
310.15 K	153.1
315.15 K	155.3
320.15 K	157.6
325.15 K	159.9
330.15 K	162
335.15 K	164.1
340.15 K	166.9
345.15 K	170.3
350.15 K	172.8
355.15 K	175.5
360.15 K	177.7
365.15 K	180.1
370.15 K	182.5
375.15 K	185.6
380.15 K	188.6
385.15 K	191.5
390.15 K	194.7

Conditions	Molar enthalpy of transition or fusion [kcal/mol]	Normal melting temperature [°C]
[2], Crystal 2	4.83	–
[3], Crystal 1	–	130.2

c1csc(-c2cccs2)c1 [2,2'-bithienyl]
[1], Crystal
Conditions	molar heat capacity at constant pressure [J/K/mol]
263.15 K	175.4
265.15 K	176.2
270.15 K	178.3
275.15 K	182.4
280.15 K	185.6
285.15 K	189.3
290.15 K	192.9
291.15 K	193.6
295.15 K	198.5
298.15 K	205.5
300.15 K	218.1

Crystal
Conditions	Molar enthalpy of transition or fusion [kcal/mol]	Normal melting temperature [°C]
[2]	3.94	–
[3]	–	31.1

c1cscn1 [1,3-thiazole]
Conditions	molar heat capacity at constant pressure [J/K/mol]
[1], 298.15 K, Liquid	122.1

O=C(O)c1ccc(C(=O)O)s1 [2,5-thiophenedicarboxylic acid]
[1], Crystal
Conditions	molar heat capacity at constant pressure [J/K/mol]
277.15 K	161.4
280.15 K	162.7
285.15 K	163.7
290.15 K	164.7
295.15 K	166.4
298.15 K	167.1
300.15 K	167.7
305.15 K	169.5
310.15 K	171
315.15 K	173.1
320.15 K	175.1
325.15 K	177
330.15 K	178.1
335.15 K	179.7
340.15 K	180.8
345.15 K	182.3
350.15 K	184
355.15 K	186.1
360.15 K	186.4
365.15 K	190.1
370.15 K	192.4
375.15 K	194.2
380.15 K	196.7
385.15 K	198.7
390.15 K	200.9
395.15 K	203.3
400.15 K	206.1
405.15 K	209.6
410.15 K	210.9
415.15 K	213.7
420.15 K	216.3
425.15 K	219.4
430.15 K	223.1
435.15 K	225.5
440.15 K	228.1
445.15 K	229.8

O=S1(=O)CCCOC1 [1,3-oxathiane-3,3-dioxide]
[1], Crystal
Conditions	molar heat capacity at constant pressure [J/K/mol]
268.15 K	133.2
270.15 K	134.5
275.15 K	136.5
280.15 K	138.6
285.15 K	140.6
290.15 K	143.3
295.15 K	146.3
298.15 K	148.1
300.15 K	149.6
305.15 K	153.8
310.15 K	158.6
315.15 K	161.5
320.15 K	164.8
325.15 K	168.3
330.15 K	171.7
335.15 K	176.3

Crystal
Conditions	Molar enthalpy of transition or fusion [kcal/mol]	Normal melting temperature [°C]
[2]	3.63	–
[3]	–	79.8

COC(=O)Cc1cccs1 [methyl 2-thiopheneacetate]
Conditions	molar heat capacity at constant pressure [J/K/mol]
[1], 298.15 K, Liquid	249.8

O=S1(=O)CCSCC1 [1,4-dithiane sulfone]
[1], Crystal
Conditions	molar heat capacity at constant pressure [J/K/mol]
268.15 K	141
270.15 K	141.7
275.15 K	143.8
280.15 K	145.9
285.15 K	148.1
290.15 K	149.8
295.15 K	151.8
298.15 K	152.7
300.15 K	153.5
305.15 K	155.6
310.15 K	158.1
315.15 K	160.5
320.15 K	163
325.15 K	165.5
330.15 K	167.5
335.15 K	168.9
340.15 K	171
345.15 K	173
350.15 K	175.1
355.15 K	177.4
360.15 K	179.5
365.15 K	181.6
370.15 K	184.4
375.15 K	186.2
380.15 K	189.1
385.15 K	191.2
390.15 K	195.1
395.15 K	199.6
400.15 K	203.3
405.15 K	205.7
410.15 K	209.1
415.15 K	212.2
420.15 K	215.5
425.15 K	218.8
430.15 K	222.8
435.15 K	226.2
440.15 K	230.2
445.15 K	234.7
450.15 K	239.4
454.15 K	243.2

Crystal
Conditions	Molar enthalpy of transition or fusion [kcal/mol]	Normal melting temperature [°C]
[2]	6.21	–
[3]	–	201.1

O=C(O)Cc1ccsc1 [3-thiopheneacetic acid]
[1], Crystal
Conditions	molar heat capacity at constant pressure [J/K/mol]
268.15 K	151.1
270.15 K	152.6
275.15 K	155.6
280.15 K	158.5
285.15 K	160.8
290.15 K	163.6
295.15 K	166.6
298.15 K	168.4
300.15 K	169.8
305.15 K	172.7
310.15 K	175.3
315.15 K	178.8
320.15 K	182.7
325.15 K	186.8
330.15 K	190.6
335.15 K	193.9
340.15 K	198.7

Crystal
Conditions	Molar enthalpy of transition or fusion [kcal/mol]	Normal melting temperature [°C]
[2]	4.49	–
[3]	–	80.2

CC(=O)c1ccsc1 [3-acetylthiophene]
[1], Crystal
Conditions	molar heat capacity at constant pressure [J/K/mol]
268.15 K	134
270.15 K	134.9
275.15 K	136.7
280.15 K	138.7
285.15 K	140.3
290.15 K	142.4
295.15 K	145
298.15 K	146.1
300.15 K	147.5

Crystal
Conditions	Molar enthalpy of transition or fusion [kcal/mol]	Normal melting temperature [°C]
[2]	4.52	–
[3]	–	60.5

COC(=O)Cc1ccsc1 [methyl 3-thiopheneacetate]
Conditions	molar heat capacity at constant pressure [J/K/mol]
[1], 298.15 K, Liquid	250.6
